These results are taken from patent publication US20250127933A1, “Method of verifying effectiveness and stability of linker in Drug Delivery system and Structure therefor” (INDUSTRY-ACADEMIC COOPERATION FOUNDATION OF SUNCHON …, priority 2023, published 2025).

The nature of data set [1]: pH-dependent stability test. It is filed as physicochemical. To be noted: 1 μM probe, pH 2 to 12, 25° C. On the procedure: Thermal stability was evaluated by the incubation of 1 μM of the probe in PBS buffer (pH 7.4) at different temperatures ranging from 25 to 45° C. for 20 min and reading fluorescence at each temperature. The pH stability test was performed by the incubation with 1 μM probe in different pH buffers (2 to 13) at 25° C. and recording fluorescence at each pH.

Data set [2] can be described thus: Ex vivo plasma stability in mice serum. It is filed as in vitro ADME, C57BL/6 mice. To be noted: 10 μM probe, 48 h. On the procedure: Animal was treated strictly according to the guidelines for laboratory animal care and use issued by the Sunchon National University Institutional Animal Care and Use Committee (SCNU IACUC). Female C57/BL6 mice (7 weeks old), weighing about 17-20 g, were purchased from Orientbio (Orientbio Inc., Seongnam, Korea). Blood was collected from the posterior orbital plexus in normal mice and centrifuged (5000 rpm, 4° C., 5 minutes) to obtain serum. The stability study was performed by incubation of the fluorescent probe (10 μM) or rhodol fluorophore (0.1, 0.3, 1, 3 and 10 μM) with serum at 37° C. . . . The fluorescence was detected on Synergy™ H1 microplate reader.

The test system of data set [3] is Leucine aminopeptidase (LAP). Briefly: Enzymatic kinetic study of LAP reaction of activatable fluorescent probes. The data set is classed as biochemical, porcine. On the procedure: All spectroscopic readings were measured with BioTek Synergy™ H1 spectrophotometer, using 96 well microplate. A parent stock solution of probes was dissolved in DMSO to obtain 10 mM. Leucine aminopeptidase was dissolved in deionized water to obtain 1 mg/mL. All spectra measurements were carried out in PBS buffer solution (PBS buffer, 10 mM, pH 7.4, 37° C. The final volume in 96 well microplate was adjusted to 200 μL. RPMI 1640 was obtained from Thermo Scientific (Waltham, MA, USA). Bestatin hydrochloride (LAP inhibitor), DMSO and 2-mercaptoethanol were purchased from Sigma Aldrich (St. Louis, Mo, USA).
The kinetic study for LAP reaction was performed by incubation of 2 μg of LAP ([…]) with 1 μM probe in PBS buffer (10 mM, pH 7.4). The plate was incubated at 37° C. for 80 min with continuous shaking, and the emission spectra were recorded at the corresponding wavelength over time. A solution of LAP (2 μg/200 μL) was pretreated with bestatin (0, 1, 10, 50 and 100 μM) in PBS (10 mM, pH 7.4) at 37° C. for 30 min, and then 1 μM of probe was added. The mixture was incubated at 37° C., and the fluorescence was recorded on Synergy™ H1 using a 96-well microplate.
All reagents and solvents were obtained from commercial sources Sigma-Aldrich Chemical Co., Combi-Block, Tokyo Chemical Industries, Daejung Chemicals, and Alfa Aesar and used without purification. Anhydrous solvents were purchased from Sigma-Aldrich and used under dry nitrogen atmosphere. Ultrapure water was obtained from a water ultra-purification system. Completion of reaction was confirmed by thin layer chromatography (TLC) on Kiesegel 60F254 from Merck and all synthesized compounds were purified by flash column chromatography using ZEOprep 60 (40-63) […] silica gel from ZEOCHEM. ^1H and ^13C NMR spectra were measured on JEOL JNMECZ400s/L1 (400 MHZ) and CDCl3 or DMSO-d6 was used as the NMR solvents. The chemical shifts were quoted in parts per million (ppm) and the coupling constant (J) were reported in hertz unit (Hz). Chemical shifts (in ppm) were referenced to tetramethylsilane (δ=0 ppm) in CDCl3 as an internal standard. ^13C NMR spectra were reported in ppm referenced to the center line of the triplet at 77.0 ppm for CDCl3 or 39.5 ppm for DMSO-d6. All in vitro enzyme assays were performed by taking the absorbance and emission on Synergy™ H1 microplate reader from BioTek. Leucine aminopeptidase from porcine kidney and other enzymes were purchased from Sigma-Aldrich.

Data set [4] deals with T1, Leucine aminopeptidase (LAP) (Sus scrofa, UniProt P15145).
T1 construct: purchased Sigma-Aldrich; host or cells: porcine kidney (tissue-derived enzyme)
T1 sequence (P15145 33-963 limits assumed): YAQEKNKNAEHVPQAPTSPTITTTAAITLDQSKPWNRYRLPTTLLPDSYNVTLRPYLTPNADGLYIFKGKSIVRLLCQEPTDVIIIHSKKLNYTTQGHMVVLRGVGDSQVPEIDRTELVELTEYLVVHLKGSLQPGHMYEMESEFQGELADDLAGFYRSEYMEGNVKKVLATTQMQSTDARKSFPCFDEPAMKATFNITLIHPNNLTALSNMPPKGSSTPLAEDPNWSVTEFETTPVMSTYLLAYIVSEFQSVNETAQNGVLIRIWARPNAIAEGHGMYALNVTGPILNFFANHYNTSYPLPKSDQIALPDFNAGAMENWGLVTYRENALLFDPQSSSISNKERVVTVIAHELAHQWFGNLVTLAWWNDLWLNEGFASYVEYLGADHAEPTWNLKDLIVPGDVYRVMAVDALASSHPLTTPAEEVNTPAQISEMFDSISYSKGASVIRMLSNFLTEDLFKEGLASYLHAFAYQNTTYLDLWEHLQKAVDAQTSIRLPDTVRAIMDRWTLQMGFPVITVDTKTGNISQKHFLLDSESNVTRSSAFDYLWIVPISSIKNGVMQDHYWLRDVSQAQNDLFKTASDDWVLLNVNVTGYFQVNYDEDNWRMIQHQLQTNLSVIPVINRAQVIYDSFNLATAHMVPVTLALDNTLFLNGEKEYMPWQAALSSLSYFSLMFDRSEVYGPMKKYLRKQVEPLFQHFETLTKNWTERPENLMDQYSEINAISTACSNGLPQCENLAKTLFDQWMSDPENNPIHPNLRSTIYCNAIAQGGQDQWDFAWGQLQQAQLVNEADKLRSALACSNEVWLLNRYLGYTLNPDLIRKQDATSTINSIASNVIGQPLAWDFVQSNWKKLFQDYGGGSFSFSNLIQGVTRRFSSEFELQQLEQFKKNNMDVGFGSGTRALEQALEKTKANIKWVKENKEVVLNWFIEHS
Briefly: Selectivity test against various bioanalytes. The data set is classed as biochemical, porcine. To be noted: 1 μM probe, 1 mM analytes or 1 U/mL enzymes, 0.05 U/mL LAP, PBS pH 7.4, 37° C., 1 h. On the procedure:
1 μM of probe was incubated with various bioanalytes containing 1 mM of NaOCl, H2O2, CaCl2), ZnCl2, KCl, NaCl, GSH, vitamin C, L-cystein, L-arginine, L-alanine and 1 U/mL of α-amylase, lysozyme, cellulase under 0.05 U/mL of LAP in PBS (10 mM, pH 7.4) at 37° C. for 1 h. The fluorescence was recorded on Synergy™ H1 microplate reader.

The subject of data set [5] is Leucine aminopeptidase (LAP). Put plainly: Enzymatic kinetic study of LAP reaction of activatable fluorescent probes. The data set is classed as biochemical, porcine. Particulars: 1 μM probe; LAP 1, 5, 10, 20, 50, 100 μg/mL; PBS pH 7.4, 80 min, 37° C.
Data set [6] has as its system HepG2 cells. Briefly: Kinetic and competitive study in HepG2 cells. It is filed as cell-based. To be noted: bestatin pretreatment 0, 10, 100 μM; Rhodo-P2 2.0 μM. How it is done: HepG2 cells (3×10^4 cells/well) were seeded in black-walled, transparent bottomed 96-well plates and cultured overnight. […] Kinetic study was performed in Synergy™ H1 microplate reader.
In data set [7] the test system is HepG2 cells. Briefly: Confocal live cell imaging in HepG2 cells. The data set is classed as cell-based. Particulars: bestatin 500 μM pretreatment for 1 h, Rhodo-P1 1 μM. How it is done: HepG2 cells were maintained in DMEM medium containing 10% FBS and 1% antibiotics in the 15 μ-plate 96 well black (ibidi, Germany). HepG2 cells were incubated with or without 500 μM of bestatin, LAP inhibitor, for 1 h and subsequently treated with 1 μM of probe and Lyso-Tracker™ Red (Thermo Scientific, USA) for 1 h. The treated cells were washed three times with PBS and treated with 10 μM of DAPI (Thermo Scientific, USA) for 2 h. Imaged were collected by Leica confocal microscopy (TCS SP5 AOBS/Tandem, Leica, Germany). Lyso-Tracker™ Red was excited by 514 nm and detected by 570-620 nm, compounds were excited by 476 nm and detected by 505-545 nm, DAPI was excited by 405 nm and detected by 420-470 nm.

Data set [8] relates to Leucine aminopeptidase (LAP). Briefly: Competitive assay with LAP inhibitor bestatin. It is filed as biochemical, porcine. Particulars: bestatin pretreatment 0, 1, 10, 50, 100 μM; LAP 10 μg/mL; PBS pH 7.4, 37° C.

Structures are written as SMILES.

In the case of `COc1ccc2c(c1)Oc1cc(NC(=O)OCc3ccc(NC(=O)[C@@H](N)CC(C)C)cc3)ccc1C21OC(=O)c2ccccc21` (stereo partly drawn) [Probe 4, 4-((S)-2-Amino-4-methylpentanamido)benzyl methoxy-3-oxo-3H-spiro[isobenzofuran-1,9′-xanthen]-6′-(3′-yl)carbamate], in data set [1], the “pH-dependent stability (fluorescence of fluorophore released by degradation)” value is “no change in fluorescence emission according to the change in pH”. Besides, in data set [2] (C57/BL6 mice serum), the “time-dependent fluorescence emission in serum” value was “fluorescence emission with a gentle increasing slope”. Moreover, the “% survival rate of probe in serum” value in data set [2] (C57BL/6 mice serum, 37° C.) came out at 48%. For the same molecule, the “Fluorophore released in LAP reaction (% yield)” value in data set [3] (1 μM probe, 10 μg/mL LAP, PBS pH 7.4, 37° C., 80 min) worked out at 76.9%. Besides, in data set [3] (1 μM probe, 10 μg/mL LAP, PBS pH 7.4, 37° C., 80 min, calculated from fluorophore calibration curves), the “Fluorophore released in LAP reaction (concentration)” value was approximately 0.769 µM. In addition, the “LAP response / fluorophore release (in words)” value in data set [3] (LAP reaction, enzymatic study) is listed as “high yields of LAP reactions”. In data set [4], the “selectivity for LAP over other bioanalytes (fluorescence response)” value was “most biocompatible in selectivity tests as well as pH and thermal stability tests”. Moreover, in data set [5], the “LAP response at various concentrations of LAP” value was “nearly maximal responses at 10 μg/mL of LAP”.

On to `CC(C)C[C@H](NC(=O)[C@@H](O)[C@H](N)Cc1ccccc1)C(=O)O` [bestatin], for which the “inhibition of Rhodo-P2 response in HepG2 cells” value in the data set with HepG2 cells [6] is “concentration-dependent inhibition of Rhodo-P2”. In the data set with HepG2 cells [7], the “effect of bestatin on probe fluorescence in confocal live cell imaging” value was “only showed blue staining by DAPI without green fluorescence from the LAP probe”. Besides, the “inhibition of LAP reaction of Rhodo-P2 (fluorescence emission)” value in data set [8] is “reduced fluorescence emission by released fluorophores in a concentration-dependent manner”.
